In assay [1] the test system is human UCN II promoter. The assay can be described thus: Dexamethasone induced expression from UCN II promoter fragments in CATH.a cultures. In kind it is cell-based, mouse. To be noted: 20 μM dexamethasone, 22 h. An excerpt:
(§1) The above constructs containing the human UCN II promoter fragments placed upstream of the firefly luciferase gene can be used to transfect immortalized cell lines. The constructs can be transfected into CHO-K1 cell lines using Lipofectamine 2000 (Invitrogen Life Technologies). Primary cultures of the central nervous system, as well as additional immortalized cell lines, are also appropriate for these transfections. To control for transfection efficiency, the cells can also be co-transfected with the pRL-TK vector (Promega). The pRL-TK vector contains the Renilla luciferase gene downstream of the herpes simplex virus thymidine kinase promoter, a promoter which provides low to moderate levels of expression. Cell lysates can be assayed for total protein using the BCA assay (Pierce, Rockford, Ill.) to standardize for the protein extraction. The level of reporter gene expression from a standardized amount of cell extract can be quantified by measuring luciferase activity using a luminometer (EG&G Wallac, Gaithersburg, Md.) and the dual-luciferase reporter assay system (Promega). Firefly luciferase activity reflects UCN II promoter activity and Renilla luciferase activity can be used to normalize data between experiments.
In the following experiments, we confirmed the dexamethasone treatment results in the CATH.a cell line. Using the methods described previously, CATH.a cultures were transiently transfected with the UCN II promoter constructs. Immediately following transfection equal numbers of cultures (N=12 per group) were treated with either 20 μM dexamethasone or were given vehicle. Twenty-two hours following treatment, the cultures were harvested and assayed for luciferase activity (see FIG. 7).

Assay [2] relates to human UCN II promoter. In words: Dexamethasone induced expression from UCN II promoter fragments in CHO-K1 cultures. To be noted: 20 μM dexamethasone, 22 h. It counts as cell-based, hamster.
Excerpt: as §1
Using the methods described previously, CHO-K1 cultures were transiently transfected with the UCN II promoter constructs. […]

Assay [3] relates to human UCN II promoter. In words: CRF induced expression from UCN II promoter fragments in CATH.a cultures. To be noted: 1 μM CRF, 22 h. It counts as cell-based.
Excerpt: as §1
Using the methods described previously, CATH.a cultures were transiently transfected with the UCN II promoter constructs. Immediately following transfection equal numbers of cultures (N=4 per group) were treated with either 1 μM CRF or with vehicle. Twenty-two hours following treatment, the cultures were harvested and assayed for luciferase activity (see FIG. 8). CATH.a cultures are known to express CRF receptors and both CRF and UCN II are known ligands for the receptors. […] The goal of the present experiment was to determine if CRF receptor-dependent second messenger system activation affected UCN II gene expression.

Where no end group is shown, it is not given here.

`C[C@@H]1C[C@H]2[C@@H]3CCC4=CC(=O)C=C[C@]4(C)[C@@]3(F)[C@@H](O)C[C@]2(C)[C@@]1(O)C(=O)CO` [dexamethasone]: in the assay with human UCN II promoter [1], the “decrease in expression compared to vehicle, −1426 construct” value was 39%; the “decrease in expression compared to vehicle, −1987 construct” value came out at 29%; the “expression within the remaining constructs vs vehicle” value is given as “no effect”. Also, in the assay with human UCN II promoter [2], the “decrease in expression compared to vehicle, −1426 construct” value was determined as 15% and the “expression within the remaining constructs vs vehicle” value is listed as “no significant effect”.
As to “corticotropin-releasing factor (SEEPPISLDLTFHLLREVLEMARAEQLAQQAHSNRKLMEII; ends and bridges not checked; UniProt P06850 154-194, looked up) [CRF, neurotransmitter peptide, ligand of CRF receptors]”, in the assay on human UCN II promoter [3], the “expression within the remaining constructs vs vehicle” value is “no significant effect”; the “increase in expression over vehicle, −1426 construct” value came out at 52%; the “increase in expression over vehicle, −1987 construct” value is reported as 29%. Besides, the “expression within the −1987 and −1426 constructs vs vehicle” value in the assay on human UCN II promoter [3] (P<0.05 for −1987, P<0.001 for −1426, preliminary data) is “significantly increased expression”.

These data come from patent US7087385B2, “Promoter sequences for urocortin II and the use thereof” (Wisconsin Alumni Research Foundation, priority 2002, dated 2006).
